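Tested at 5 concentrations; 48 h exposure; 96-well plates; endpoints linearly interpolated, else capped at highest concentration. GI50: concentration for 50% inhibition of growth.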 Activity calls are given as the source filed them. Rule as the data show it: active = GI50 up to about 1.1 µM and inactive = higher.
Experiments:
Assay in all cases: NCI tumour cell line growth inhibition, 48 h
786-0 = tested on: 786-0
A498 = tested on: A498
ACHN = tested on: ACHN
BT-549 = tested on: BT-549
CAKI-1 = tested on: CAKI-1
CCRF-CEM = tested on: CCRF-CEM
COLO 205 = tested on: COLO 205
HCC 2998 = tested on: HCC 2998
HCT-116 = tested on: HCT-116
HL-60 = tested on: HL-60
HT-29 = tested on: HT-29
Hs-578T = tested on: Hs-578T
IGROV-1 = tested on: IGROV-1
K562 = tested on: K562
M14 = tested on: M14
MDA-MB-435 = tested on: MDA-MB-435
MOLT-4 = tested on: MOLT-4
NCI-H23 = tested on: NCI-H23
NCI/ADR-RES = tested on: NCI/ADR-RES
OVCAR-5 = tested on: OVCAR-5
RPMI-8226 = tested on: RPMI-8226
RXF 393 = tested on: RXF 393
SF-268 = tested on: SF-268
SF-539 = tested on: SF-539
SK-MEL-28 = tested on: SK-MEL-28
SK-MEL-2 = tested on: SK-MEL-2
SK-OV-3 = tested on: SK-OV-3
SNB-19 = tested on: SNB-19
SNB-75 = tested on: SNB-75
SR = tested on: SR
T47D = tested on: T47D
U-251 = tested on: U-251
UACC-257 = tested on: UACC-257
UO-31 = tested on: UO-31
A549 = tested on: A549
DU-145 = tested on: DU-145
EKVX = tested on: EKVX
HCT-15 = tested on: HCT-15
HOP-62 = tested on: HOP-62
HOP-92 = tested on: HOP-92
KM12 = tested on: KM12
LOX IMVI = tested on: LOX IMVI
MCF7 = tested on: MCF7
MDA-MB-231 = tested on: MDA-MB-231
Malme-3M = tested on: Malme-3M
NCI-H460 = tested on: NCI-H460
NCI-H522 = tested on: NCI-H522
OVCAR-3 = tested on: OVCAR-3
OVCAR-4 = tested on: OVCAR-4
OVCAR-8 = tested on: OVCAR-8
PC-3 = tested on: PC-3
SF-295 = tested on: SF-295
SK-MEL-5 = tested on: SK-MEL-5
SN12C = tested on: SN12C
SW-620 = tested on: SW-620
TK-10 = tested on: TK-10
UACC-62 = tested on: UACC-62
NCI-H226 = tested on: NCI-H226

`Cc1ccccc1NC(=O)NC(Oc1ccccc1)(C(F)(F)F)C(F)(F)F` was tested, and the GI50 (786-0) was > 100 µM (inactive), the GI50 (A498) was > 100 µM (inactive) and the GI50 (ACHN) was > 100 µM (inactive). The GI50 (BT-549) was > 100 µM (inactive), the GI50 (CAKI-1) was 22.4 µM (inactive) and the GI50 (CCRF-CEM) was > 100 µM (inactive). The GI50 (COLO 205) was > 100 µM (inactive), the GI50 (HCC 2998) was > 100 µM (inactive) and the GI50 (HCT-116) was > 100 µM (inactive). The GI50 (HL-60) was > 100 µM (inactive), the GI50 (HT-29) was > 100 µM (inactive) and the GI50 (Hs-578T) was > 100 µM (inactive). The GI50 (IGROV-1) was > 100 µM (inactive), the GI50 (K562) was > 100 µM (inactive) and the GI50 (M14) was > 100 µM (inactive). The GI50 (MDA-MB-435) was > 100 µM (inactive), the GI50 (MOLT-4) was > 100 µM (inactive) and the GI50 (NCI-H23) was > 100 µM (inactive). The GI50 (NCI/ADR-RES) was > 100 µM (inactive), the GI50 (OVCAR-5) was > 100 µM (inactive) and the GI50 (RPMI-8226) was > 100 µM (inactive). The GI50 (RXF 393) was 73.1 µM (inactive), the GI50 (SF-268) was > 100 µM (inactive) and the GI50 (SF-539) was > 100 µM (inactive). For the same compound, the GI50 (SK-MEL-28) was > 100 µM (inactive), the GI50 (SK-MEL-2) was > 100 µM (inactive) and the GI50 (SK-OV-3) was > 100 µM (inactive). For the same compound, the GI50 (SNB-19) was > 100 µM (inactive), the GI50 (SNB-75) was > 100 µM (inactive) and the GI50 (SR) was > 100 µM (inactive). The GI50 (T47D) was > 100 µM (inactive), the GI50 (U-251) was > 100 µM (inactive) and the GI50 (UACC-257) was > 100 µM (inactive). For the same compound, the GI50 (UO-31) was > 100 µM (inactive).
`O=C(CSc1nccc(=O)[nH]1)c1ccccc1` was tested, and the GI50 (786-0) was > 100 µM (inactive), the GI50 (A549) was > 100 µM (inactive) and the GI50 (ACHN) was > 100 µM (inactive). For the same compound, the GI50 (BT-549) was > 100 µM (inactive), the GI50 (CAKI-1) was > 100 µM (inactive) and the GI50 (COLO 205) was > 100 µM (inactive). The GI50 (DU-145) was > 100 µM (inactive), the GI50 (EKVX) was > 100 µM (inactive) and the GI50 (HCT-116) was > 100 µM (inactive). The GI50 (HCT-15) was over 100 µM, the GI50 (HL-60) was > 100 µM (inactive) and the GI50 (HOP-62) was 63.1 µM (inactive). The GI50 (HOP-92) was > 100 µM (inactive), the GI50 (HT-29) was > 100 µM (inactive) and the GI50 (Hs-578T) was 16.1 µM (inactive). The GI50 (IGROV-1) was > 100 µM (inactive), the GI50 (K562) was > 100 µM (inactive) and the GI50 (KM12) was > 100 µM (inactive). For the same compound, the GI50 (LOX IMVI) was 78.3 µM (inactive), the GI50 (M14) was > 100 µM (inactive) and the GI50 (MCF7) was 91 µM (inactive). For the same compound, the GI50 (MDA-MB-231) was 61.5 µM (inactive), the GI50 (MDA-MB-435) was 62.2 µM (inactive) and the GI50 (MOLT-4) was > 100 µM (inactive). For the same compound, the GI50 (Malme-3M) was 82.4 µM (inactive), the GI50 (NCI-H23) was > 100 µM (inactive) and the GI50 (NCI-H460) was 80.5 µM (inactive). The GI50 (NCI-H522) was > 100 µM (inactive), the GI50 (NCI/ADR-RES) was 37.2 µM (inactive) and the GI50 (OVCAR-3) was 40.7 µM (inactive). For the same compound, the GI50 (OVCAR-4) was > 100 µM (inactive), the GI50 (OVCAR-5) was > 100 µM (inactive) and the GI50 (OVCAR-8) was > 100 µM (inactive). The GI50 (PC-3) was > 100 µM (inactive), the GI50 (RXF 393) was > 100 µM (inactive) and the GI50 (SF-268) was > 100 µM (inactive). The GI50 (SF-295) was 60.4 µM (inactive), the GI50 (SF-539) was 39.8 µM (inactive) and the GI50 (SK-MEL-28) was > 100 µM (inactive). The GI50 (SK-MEL-2) was > 100 µM (inactive), the GI50 (SK-MEL-5) was > 100 µM (inactive) and the GI50 (SK-OV-3) was > 100 µM (inactive). For the same compound, the GI50 (SN12C) was 49.9 µM (inactive), the GI50 (SNB-19) was > 100 µM (inactive) and the GI50 (SNB-75) was > 100 µM (inactive). For the same compound, the GI50 (SR) was > 100 µM (inactive), the GI50 (SW-620) was > 100 µM (inactive) and the GI50 (T47D) was > 100 µM (inactive). The GI50 (TK-10) was > 100 µM (inactive), the GI50 (U-251) was > 100 µM (inactive) and the GI50 (UACC-257) was > 100 µM (inactive). The GI50 (UACC-62) was 46.2 µM (inactive) and the GI50 (UO-31) was > 100 µM (inactive).
With `O=C(NC1(C(=O)NNc2nnc(-c3ccccc3)c(-c3ccccc3)n2)C(c2ccccc2)C(c2ccccc2)=NN1c1ccccc1)c1ccccc1` (configuration not stated) the GI50 (786-0) was > 100 µM (inactive), the GI50 (A498) was > 100 µM (inactive) and the GI50 (A549) was > 100 µM (inactive). The GI50 (ACHN) was > 100 µM (inactive), the GI50 (BT-549) was > 100 µM (inactive) and the GI50 (CAKI-1) was > 100 µM (inactive). For the same compound, the GI50 (COLO 205) was > 100 µM (inactive), the GI50 (DU-145) was > 100 µM (inactive) and the GI50 (EKVX) was > 100 µM (inactive). The GI50 (HCC 2998) was 63.4 µM (inactive), the GI50 (HCT-116) was > 100 µM (inactive) and the GI50 (HCT-15) was over 100 µM. For the same compound, the GI50 (HL-60) was 46.8 µM (inactive), the GI50 (HOP-62) was > 100 µM (inactive) and the GI50 (HOP-92) was 73.1 µM (inactive). The GI50 (HT-29) was > 100 µM (inactive), the GI50 (Hs-578T) was > 100 µM (inactive) and the GI50 (KM12) was > 100 µM (inactive). For the same compound, the GI50 (M14) was > 100 µM (inactive), the GI50 (MDA-MB-231) was > 100 µM (inactive) and the GI50 (MDA-MB-435) was > 100 µM (inactive). The GI50 (MOLT-4) was > 100 µM (inactive), the GI50 (Malme-3M) was 64.1 µM (inactive) and the GI50 (NCI-H226) was > 100 µM (inactive). The GI50 (NCI-H23) was > 100 µM (inactive), the GI50 (NCI-H460) was > 100 µM (inactive) and the GI50 (NCI-H522) was > 100 µM (inactive). For the same compound, the GI50 (NCI/ADR-RES) was > 100 µM (inactive), the GI50 (OVCAR-3) was > 100 µM (inactive) and the GI50 (OVCAR-4) was > 100 µM (inactive). For the same compound, the GI50 (OVCAR-5) was > 100 µM (inactive), the GI50 (OVCAR-8) was > 100 µM (inactive) and the GI50 (PC-3) was > 100 µM (inactive). For the same compound, the GI50 (RXF 393) was 22.6 µM (inactive), the GI50 (SF-268) was > 100 µM (inactive) and the GI50 (SF-295) was > 100 µM (inactive). For the same compound, the GI50 (SF-539) was > 100 µM (inactive), the GI50 (SK-MEL-2) was > 100 µM (inactive) and the GI50 (SK-MEL-5) was > 100 µM (inactive). The GI50 (SK-OV-3) was > 100 µM (inactive), the GI50 (SNB-19) was > 100 µM (inactive) and the GI50 (SNB-75) was 55.8 µM (inactive). The GI50 (SR) was > 100 µM (inactive), the GI50 (SW-620) was > 100 µM (inactive) and the GI50 (T47D) was > 100 µM (inactive). The GI50 (TK-10) was > 100 µM (inactive), the GI50 (U-251) was > 100 µM (inactive) and the GI50 (UACC-257) was > 100 µM (inactive). The GI50 (UACC-62) was > 100 µM (inactive) and the GI50 (UO-31) was 41.4 µM (inactive).
